Laboratory results: article PMC5897336, “Phosphatase activity tunes two-component system sensor detection threshold” (Nature Communications, 2018)

System: ThsS
Settings: read-out: K1/2; whole E. coli cells, M9 glycerol, 37 °C, agonist, added as Na2S2O3, 200 μM IPTG, 20 ng/mL aTc; wild type taken as the upper end of the printed range

## O=S(=O)(O)S [thiosulfate]
  EC50: 192 µM
